Source: ChEMBL document CHEMBL4715922, “Methionine Adenosyltransferase Inhibitors for the Treatment of Cancer” (ACS Med Chem Lett, 2021)

Each compound was assayed on HCT-116 (assay: Antiproliferative activity against isogenic pair of human HCT-116 cells harboring […] del mutant assessed as reduction in cell growth incubated for 4 days by Cell Titer-Glo assay). Settings: HCT-116, 96 h.
Assay type: cell-based

IC50 [nM]	SMILES
< 100	Cn1cc2cc(-n3nc4ccc(SCC(F)(F)F)nc4c(-c4ccc(OC(F)F)cc4)c3=O)ccc2n1
< 100	[2H]C([2H])([2H])Oc1c2cc(-n3nc4ccc(OCC(F)F)nc4c(-c4ccc(OC(F)F)cc4)c3=O)ccc2nn1C
≥ 100	Cn1cc2cc(-n3nc4ccc(OCCC(F)(F)F)nc4c(-c4ccc(OC(F)F)cc4)c3=O)ccc2n1
< 100	O=c1c(-c2ccc(OC(F)F)cc2)c2nc(OCC(F)F)ccc2nn1-c1ccc2c(c1)CCO2
< 100	Cn1cc2cc(-n3nc4ccc(OCC(F)F)nc4c(-c4ccc(OC(F)F)cc4)c3=O)ccc2n1
< 100	O=c1c(-c2ccc(OC(F)F)cc2)c2nc(OCC(F)F)ccc2nn1-c1ccc2ncsc2c1
< 100	COc1ccc(-c2c(=O)n(-c3ccc4nn(C)cc4c3)nc3ccc(OCC(F)F)nc23)cn1
< 100	Cn1cc2cc(-n3nc4ccc(OCC(F)(F)F)nc4c(-c4ccc(OC(F)F)cc4)c3=O)ccc2n1
< 100	Cn1cc2cc(-n3nc4ccc(OCC(F)(F)F)nc4c(-c4ccc(Cl)cc4)c3=O)ccc2n1
< 100	CCOc1ccc2nn(-c3ccc4nn(C)cc4c3)c(=O)c(-c3ccc(OC)cc3)c2n1

These compounds were tested on HCT-116 (assay: Antiproliferative activity against human HCT-116 cells harboring wild type […] assessed as reduction in cell growth incubated for 4 days by Cell Titer-Glo assay). Settings: HCT-116, 96 h.
Assay type: functional, cell-based

IC50 [nM]	SMILES
≥ 100	Cn1cc2cc(-n3nc4ccc(SCC(F)(F)F)nc4c(-c4ccc(OC(F)F)cc4)c3=O)ccc2n1
≥ 100	[2H]C([2H])([2H])Oc1c2cc(-n3nc4ccc(OCC(F)F)nc4c(-c4ccc(OC(F)F)cc4)c3=O)ccc2nn1C
≥ 1000	Cn1cc2cc(-n3nc4ccc(OCCC(F)(F)F)nc4c(-c4ccc(OC(F)F)cc4)c3=O)ccc2n1
≥ 100	O=c1c(-c2ccc(OC(F)F)cc2)c2nc(OCC(F)F)ccc2nn1-c1ccc2c(c1)CCO2
≥ 100	Cn1cc2cc(-n3nc4ccc(OCC(F)F)nc4c(-c4ccc(OC(F)F)cc4)c3=O)ccc2n1
< 100	O=c1c(-c2ccc(OC(F)F)cc2)c2nc(OCC(F)F)ccc2nn1-c1ccc2ncsc2c1
≥ 100	COc1ccc(-c2c(=O)n(-c3ccc4nn(C)cc4c3)nc3ccc(OCC(F)F)nc23)cn1
≥ 100	Cn1cc2cc(-n3nc4ccc(OCC(F)(F)F)nc4c(-c4ccc(OC(F)F)cc4)c3=O)ccc2n1
≥ 100	Cn1cc2cc(-n3nc4ccc(OCC(F)(F)F)nc4c(-c4ccc(Cl)cc4)c3=O)ccc2n1
≥ 100	CCOc1ccc2nn(-c3ccc4nn(C)cc4c3)c(=O)c(-c3ccc(OC)cc3)c2n1

Each compound was assayed against T1, S-adenosylmethionine synthase isoform type-2 (Homo sapiens, UniProt P31153) (assay: Inhibition of recombinant human MAT2A expressed in baculovirus infected Sf9 cells using L-methionine as substrate incubated for 60 mins followed by substrate addition and measured after 60 mins by S-adenosyl methionine assay kit method). Settings: not given.
T1 sequence (P31153 whole entry, canonical isoform): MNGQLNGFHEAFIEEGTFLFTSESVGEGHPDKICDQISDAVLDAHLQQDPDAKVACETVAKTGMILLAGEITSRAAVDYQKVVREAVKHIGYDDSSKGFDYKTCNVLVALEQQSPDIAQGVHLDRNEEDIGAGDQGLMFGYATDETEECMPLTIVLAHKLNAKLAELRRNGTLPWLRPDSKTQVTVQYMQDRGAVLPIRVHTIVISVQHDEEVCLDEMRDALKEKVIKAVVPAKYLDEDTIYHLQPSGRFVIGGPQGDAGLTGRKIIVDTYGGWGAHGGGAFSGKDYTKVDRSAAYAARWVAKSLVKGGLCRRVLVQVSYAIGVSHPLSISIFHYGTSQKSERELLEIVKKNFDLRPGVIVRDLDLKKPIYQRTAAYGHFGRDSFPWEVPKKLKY

IC50 [nM]	SMILES
< 100	Cn1cc2cc(-n3nc4ccc(SCC(F)(F)F)nc4c(-c4ccc(OC(F)F)cc4)c3=O)ccc2n1
< 100	[2H]C([2H])([2H])Oc1c2cc(-n3nc4ccc(OCC(F)F)nc4c(-c4ccc(OC(F)F)cc4)c3=O)ccc2nn1C
< 100	Cn1cc2cc(-n3nc4ccc(OCCC(F)(F)F)nc4c(-c4ccc(OC(F)F)cc4)c3=O)ccc2n1
< 100	O=c1c(-c2ccc(OC(F)F)cc2)c2nc(OCC(F)F)ccc2nn1-c1ccc2c(c1)CCO2
< 100	Cn1cc2cc(-n3nc4ccc(OCC(F)F)nc4c(-c4ccc(OC(F)F)cc4)c3=O)ccc2n1
< 100	O=c1c(-c2ccc(OC(F)F)cc2)c2nc(OCC(F)F)ccc2nn1-c1ccc2ncsc2c1
< 100	COc1ccc(-c2c(=O)n(-c3ccc4nn(C)cc4c3)nc3ccc(OCC(F)F)nc23)cn1
< 100	Cn1cc2cc(-n3nc4ccc(OCC(F)(F)F)nc4c(-c4ccc(OC(F)F)cc4)c3=O)ccc2n1
< 100	Cn1cc2cc(-n3nc4ccc(OCC(F)(F)F)nc4c(-c4ccc(Cl)cc4)c3=O)ccc2n1
< 100	CCOc1ccc2nn(-c3ccc4nn(C)cc4c3)c(=O)c(-c3ccc(OC)cc3)c2n1

What follows are compounds tested against T1, S-adenosylmethionine synthase isoform type-2 (assay: Inhibition of MAT2A in human HCT-116 cells assessed as reduction in SAM incubated for 72 hrs by LC-MS/MS analysis). Settings: not given.
Assay type: cell-based

IC50 [nM]	SMILES
< 100	Cn1cc2cc(-n3nc4ccc(SCC(F)(F)F)nc4c(-c4ccc(OC(F)F)cc4)c3=O)ccc2n1
< 100	[2H]C([2H])([2H])Oc1c2cc(-n3nc4ccc(OCC(F)F)nc4c(-c4ccc(OC(F)F)cc4)c3=O)ccc2nn1C
≥ 100	Cn1cc2cc(-n3nc4ccc(OCCC(F)(F)F)nc4c(-c4ccc(OC(F)F)cc4)c3=O)ccc2n1
< 100	O=c1c(-c2ccc(OC(F)F)cc2)c2nc(OCC(F)F)ccc2nn1-c1ccc2c(c1)CCO2
< 100	Cn1cc2cc(-n3nc4ccc(OCC(F)F)nc4c(-c4ccc(OC(F)F)cc4)c3=O)ccc2n1
< 100	O=c1c(-c2ccc(OC(F)F)cc2)c2nc(OCC(F)F)ccc2nn1-c1ccc2ncsc2c1
< 100	COc1ccc(-c2c(=O)n(-c3ccc4nn(C)cc4c3)nc3ccc(OCC(F)F)nc23)cn1
< 100	Cn1cc2cc(-n3nc4ccc(OCC(F)(F)F)nc4c(-c4ccc(OC(F)F)cc4)c3=O)ccc2n1
< 100	Cn1cc2cc(-n3nc4ccc(OCC(F)(F)F)nc4c(-c4ccc(Cl)cc4)c3=O)ccc2n1
< 100	CCOc1ccc2nn(-c3ccc4nn(C)cc4c3)c(=O)c(-c3ccc(OC)cc3)c2n1
